Results reported in PubChem BioAssay (NCI).
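Step 1: Grow cells in 96-well plates. Step 2: Expose to compound for 48 hours at 5 concentrations. Step 3: Interpolate endpoints linearly; if unreached, use highest concentration. TGI denotes the concentration required for complete inhibition of growth.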

Legend:
Assay in all cases: NCI tumour cell line growth inhibition, 48 h
786-0 renal = test system: 786-0 renal
A498 renal = test system: A498 renal
A549 NSCLC = test system: A549 NSCLC
ACHN renal = test system: ACHN renal
CAKI-1 renal = test system: CAKI-1 renal
CCRF-CEM leukemia = test system: CCRF-CEM leukemia
DLD-1 colon = test system: DLD-1 colon
DMS 273 small cell lung = test system: DMS 273 small cell lung
EKVX NSCLC = test system: EKVX NSCLC
HCT-116 colon = test system: HCT-116 colon
HCT-15 colon = test system: HCT-15 colon
HL-60(TB) leukemia = test system: HL-60(TB) leukemia
HOP-18 NSCLC = test system: HOP-18 NSCLC
HOP-62 NSCLC = test system: HOP-62 NSCLC
HOP-92 NSCLC = test system: HOP-92 NSCLC
HT29 colon = test system: HT29 colon
IGROV1 ovarian = test system: IGROV1 ovarian
K-562 leukemia = test system: K-562 leukemia
KM20L2 colon = test system: KM20L2 colon
LXFL 529 NSCLC = test system: LXFL 529 NSCLC
M14 melanoma = test system: M14 melanoma
M19-MEL melanoma = test system: M19-MEL melanoma
MOLT-4 leukemia = test system: MOLT-4 leukemia
NCI-H23 lung = test system: NCI-H23 lung
NCI-H460 lung = test system: NCI-H460 lung
OVCAR-3 ovarian = test system: OVCAR-3 ovarian
OVCAR-4 ovarian = test system: OVCAR-4 ovarian
OVCAR-5 ovarian = test system: OVCAR-5 ovarian
OVCAR-8 ovarian = test system: OVCAR-8 ovarian
RPMI-8226 leukemia = test system: RPMI-8226 leukemia
RXF 393 renal = test system: RXF 393 renal
RXF-631 renal = test system: RXF-631 renal
SF-268 CNS = test system: SF-268 CNS
SF-295 CNS = test system: SF-295 CNS
SF-539 CNS = test system: SF-539 CNS
SK-MEL-2 melanoma = test system: SK-MEL-2 melanoma
SK-MEL-28 melanoma = test system: SK-MEL-28 melanoma
SK-MEL-5 melanoma = test system: SK-MEL-5 melanoma
SK-OV-3 ovarian = test system: SK-OV-3 ovarian
SN12C renal = test system: SN12C renal
SNB-19 CNS = test system: SNB-19 CNS
SNB-75 CNS = test system: SNB-75 CNS
SNB-78 CNS = test system: SNB-78 CNS
SW-620 colon = test system: SW-620 colon
TK-10 renal = test system: TK-10 renal
U251 CNS = test system: U251 CNS
UACC-257 melanoma = test system: UACC-257 melanoma
UACC-62 melanoma = test system: UACC-62 melanoma
UO-31 renal = test system: UO-31 renal
XF 498 CNS = test system: XF 498 CNS
COLO 205 colon = test system: COLO 205 colon
DMS 114 small cell lung = test system: DMS 114 small cell lung
HCC-2998 colon = test system: HCC-2998 colon
KM12 colon = test system: KM12 colon
LOX IMVI melanoma = test system: LOX IMVI melanoma
MALME-3M melanoma = test system: MALME-3M melanoma
MCF7 breast = test system: MCF7 breast
NCI-H226 lung = test system: NCI-H226 lung
NCI-H522 lung = test system: NCI-H522 lung
NCI/ADR-RES ovarian = test system: NCI/ADR-RES ovarian
P388 leukemia = test system: P388 leukemia
P388/ADR leukemia = test system: P388/ADR leukemia
SN12K1 renal = test system: SN12K1 renal

c1cncc(C2N3CCCCC3[C@@H]3c4[nH]c5ccccc5c4CCN23)c1 (some centres not stated) was tested, and the TGI (786-0 renal) was greater than 100 µM, the TGI (A498 renal) was greater than 100 µM and the TGI (A549 NSCLC) was greater than 100 µM. The TGI (ACHN renal) was greater than 100 µM, the TGI (CAKI-1 renal) was greater than 100 µM and the TGI (CCRF-CEM leukemia) was greater than 100 µM. It also gave a TGI (DLD-1 colon) greater than 100 µM, a TGI (DMS 273 small cell lung) greater than 100 µM and a TGI (EKVX NSCLC) greater than 100 µM. The TGI (HCT-116 colon) was greater than 100 µM, the TGI (HCT-15 colon) was greater than 100 µM and the TGI (HL-60(TB) leukemia) was greater than 100 µM. The TGI (HOP-18 NSCLC) was greater than 100 µM, the TGI (HOP-62 NSCLC) was greater than 100 µM and the TGI (HOP-92 NSCLC) was greater than 100 µM. It also gave a TGI (HT29 colon) greater than 100 µM, a TGI (IGROV1 ovarian) greater than 100 µM and a TGI (K-562 leukemia) greater than 100 µM. The TGI (KM20L2 colon) was greater than 100 µM, the TGI (LXFL 529 NSCLC) was greater than 100 µM and the TGI (M14 melanoma) was greater than 100 µM. The TGI (M19-MEL melanoma) was greater than 100 µM, the TGI (MOLT-4 leukemia) was greater than 100 µM and the TGI (NCI-H23 lung) was greater than 100 µM. It also gave a TGI (NCI-H460 lung) greater than 100 µM, a TGI (OVCAR-3 ovarian) greater than 100 µM and a TGI (OVCAR-4 ovarian) greater than 100 µM. It also gave a TGI (OVCAR-5 ovarian) greater than 100 µM, a TGI (OVCAR-8 ovarian) greater than 100 µM and a TGI (RPMI-8226 leukemia) greater than 100 µM. The TGI (RXF 393 renal) was greater than 100 µM, the TGI (RXF-631 renal) was greater than 100 µM and the TGI (SF-268 CNS) was greater than 100 µM. For the same compound, the TGI (SF-295 CNS) was greater than 100 µM, the TGI (SF-539 CNS) was greater than 100 µM and the TGI (SK-MEL-2 melanoma) was greater than 100 µM. It also gave a TGI (SK-MEL-28 melanoma) greater than 100 µM, a TGI (SK-MEL-5 melanoma) greater than 100 µM and a TGI (SK-OV-3 ovarian) greater than 100 µM. It also gave a TGI (SN12C renal) greater than 100 µM, a TGI (SNB-19 CNS) greater than 100 µM and a TGI (SNB-75 CNS) greater than 100 µM. The TGI (SNB-78 CNS) was greater than 100 µM, the TGI (SW-620 colon) was greater than 100 µM and the TGI (TK-10 renal) was greater than 100 µM. For the same compound, the TGI (U251 CNS) was greater than 100 µM, the TGI (UACC-257 melanoma) was greater than 100 µM and the TGI (UACC-62 melanoma) was greater than 100 µM. The TGI (UO-31 renal) was greater than 100 µM and the TGI (XF 498 CNS) was greater than 100 µM.

With CC(=O)Oc1cc2c(cc1OC(C)=O)OCC(c1ccc(C)cc1)C2 (configuration not stated) the TGI (A498 renal) was 15.3 µM, the TGI (A549 NSCLC) was 64.6 µM and the TGI (CAKI-1 renal) was 40.4 µM. The TGI (CCRF-CEM leukemia) was 26.8 µM, the TGI (COLO 205 colon) was 41.8 µM and the TGI (DLD-1 colon) was 45.9 µM. It also gave a TGI (DMS 114 small cell lung) of 18.7 µM, a TGI (DMS 273 small cell lung) of 48.5 µM and a TGI (EKVX NSCLC) of 42.1 µM. The TGI (HCC-2998 colon) was 16.4 µM, the TGI (HCT-116 colon) was 41.5 µM and the TGI (HCT-15 colon) was 40.7 µM. It also gave a TGI (HL-60(TB) leukemia) of 6.56 µM, a TGI (HOP-18 NSCLC) of 62.1 µM and a TGI (HOP-62 NSCLC) of 44.4 µM. For the same compound, the TGI (HOP-92 NSCLC) was 29 µM, the TGI (HT29 colon) was 73.6 µM and the TGI (IGROV1 ovarian) was 42.9 µM. It also gave a TGI (K-562 leukemia) of 72.3 µM, a TGI (KM12 colon) of 58.6 µM and a TGI (KM20L2 colon) of 60.5 µM. It also gave a TGI (LOX IMVI melanoma) of 37.7 µM, a TGI (M19-MEL melanoma) of 23.5 µM and a TGI (MALME-3M melanoma) of 32 µM. It also gave a TGI (MCF7 breast) of 50.4 µM, a TGI (MOLT-4 leukemia) of 54.6 µM and a TGI (NCI-H226 lung) of 62.2 µM. For the same compound, the TGI (NCI-H23 lung) was 32.1 µM, the TGI (NCI-H460 lung) was 39.1 µM and the TGI (NCI-H522 lung) was 6.86 µM. It also gave a TGI (NCI/ADR-RES ovarian) of 58.3 µM, a TGI (OVCAR-3 ovarian) of 41 µM and a TGI (OVCAR-4 ovarian) of 25.7 µM. It also gave a TGI (OVCAR-5 ovarian) of 79 µM, a TGI (OVCAR-8 ovarian) of 68.6 µM and a TGI (P388 leukemia) of 20.8 µM. For the same compound, the TGI (P388/ADR leukemia) was 11.4 µM, the TGI (RPMI-8226 leukemia) was 63.1 µM and the TGI (RXF 393 renal) was 34.6 µM. The TGI (SF-268 CNS) was 34.2 µM, the TGI (SF-295 CNS) was 76.3 µM and the TGI (SF-539 CNS) was 32 µM. The TGI (SK-MEL-2 melanoma) was 34.1 µM, the TGI (SK-MEL-28 melanoma) was 39.3 µM and the TGI (SK-MEL-5 melanoma) was 13.6 µM. The TGI (SK-OV-3 ovarian) was 112 µM, the TGI (SN12C renal) was 33.2 µM and the TGI (SN12K1 renal) was 34 µM. It also gave a TGI (SNB-19 CNS) of 124 µM, a TGI (SNB-75 CNS) of 32.3 µM and a TGI (SNB-78 CNS) of 55.5 µM. It also gave a TGI (SW-620 colon) of 47.3 µM, a TGI (U251 CNS) of 38.8 µM and a TGI (UACC-257 melanoma) of 40.3 µM. For the same compound, the TGI (UACC-62 melanoma) was 21.3 µM, the TGI (UO-31 renal) was 38.3 µM and the TGI (XF 498 CNS) was 32.2 µM.
